Test results taken from patent publication US9409916B2, “Piperidinone carboxamide spirohydantoin CGRP receptor antagonists” (Merck Sharp & Dohme Corp., priority 2011, dated 2016).
pKi: −log10 of the molar value.

target: T1, recombinant human CL receptor/RAMP1 (Homo sapiens, UniProt O60894+Q16602); experiment: Recombinant receptor binding assay (125I-hCGRP); details: membranes of HEK 293 cells expressing human CL receptor/RAMP1, 10 pM 125I-hCGRP
T1 construct: expressed in transfected cells; membranes
T1 sequence (Q16602 23-461): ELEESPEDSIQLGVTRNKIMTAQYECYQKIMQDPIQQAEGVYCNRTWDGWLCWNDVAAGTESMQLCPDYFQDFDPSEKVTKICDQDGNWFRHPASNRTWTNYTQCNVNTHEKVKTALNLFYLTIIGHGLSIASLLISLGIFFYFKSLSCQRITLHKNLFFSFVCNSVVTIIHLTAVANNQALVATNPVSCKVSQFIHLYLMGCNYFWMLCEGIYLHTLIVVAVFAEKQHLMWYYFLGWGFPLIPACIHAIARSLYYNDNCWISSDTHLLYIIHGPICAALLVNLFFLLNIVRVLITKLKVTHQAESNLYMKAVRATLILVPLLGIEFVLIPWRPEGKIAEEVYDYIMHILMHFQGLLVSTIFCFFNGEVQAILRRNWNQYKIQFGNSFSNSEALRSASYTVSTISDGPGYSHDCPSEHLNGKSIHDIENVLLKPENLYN
T1 sequence (O60894 27-148): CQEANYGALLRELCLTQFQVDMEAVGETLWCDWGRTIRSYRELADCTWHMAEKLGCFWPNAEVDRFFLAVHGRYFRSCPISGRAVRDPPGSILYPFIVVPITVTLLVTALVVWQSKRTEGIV
Experimental: RECOMBINANT RECEPTOR: Human CL receptor (Genbank accession number L76380) was subcloned into the expression vector pIREShyg2 (BD Biosciences Clontech) as a 5′NheI and 3′ PmeI fragment. Human RAMP1 (Genbank accession number AJ001014) was subcloned into the expression vector pIRESpuro2 (BD Biosciences Clontech) as a 5′NheI and 3′NotI fragment. HEK 293 cells (human embryonic kidney cells; ATCC #CRL-1573) were cultured in DMEM with 4.5 g/L glucose, 1 mM sodium pyruvate and 2 mM glutamine supplemented with 10% fetal bovine serum (FBS), 100 units/mL penicillin and 100 μg/mL streptomycin, and maintained at 37° C. and 95% humidity. Cells were subcultured by treatment with 0.25% trypsin with 0.1% EDTA in HBSS. Stable cell line generation was accomplished by co-transfecting 10 μg of DNA with 30 μg Lipofectamine 2000 (Invitrogen) in 75 cm^2 flasks. CL receptor and RAMP1 expression constructs were co-transfected in equal amounts. Twenty-four hours after transfection the cells were diluted and selective medium (growth medium+300 μg/mL hygromycin and 1 μg/mL puromycin) was added the following day. A clonal cell line was generated by single cell deposition utilizing a FACS Vantage SE (Becton Dickinson). Growth medium was adjusted to 150 μg/mL hygromycin and 0.5 μg/mL puromycin for cell propagation.
RECOMBINANT RECEPTOR BINDING ASSAY: Cells expressing recombinant human CL receptor/RAMP1 were washed with PBS and harvested in harvest buffer containing 50 mM HEPES, 1 mM EDTA and Complete™ protease inhibitors (Roche). The cell suspension was disrupted with a laboratory homogenizer and centrifuged at 48,000 g to isolate membranes. The pellets were resuspended in harvest buffer plus 250 mM sucrose and stored at −70° C. For binding assays, 20 μg of membranes were incubated in 1 mL binding buffer (10 mM HEPES, pH 7.4, 5 mM MgCl2, and 0.2% BSA) for 3 h at room temperature containing 10 pM ^125I-hCGRP (GE Healthcare) and antagonist. The assay was terminated by filtration through 96-well GFB glass fiber filter plates (PerkinElmer) that had been blocked with 0.05% polyethyleneimine. […]

pKi	SMILES
10.21	C[C@@H]1[C@H](c2c(F)ccc(F)c2F)C[C@H](NC(=O)c2cnc3c(c2)C[C@@]2(C3)C(=O)NC(=O)N2C)C(=O)N1CC(F)(F)F [Example 1, (6R)-3′-Methyl-N-[(3S,5S,6R)-6-methyl-2-oxo-1-(2,2,2-trifluoroethyl)-5-(2,3,6-trifluorophenyl)piperidin-3-yl]-2′,5′-dioxo-5,7-dihydrospiro[cyclopenta[b]pyridine-6,4′-imidazolidine]-3-carboxamide]
10.23	C[C@@H]1[C@H](c2c(F)c(F)cc(F)c2F)C[C@H](NC(=O)c2cnc3c(c2)C[C@@]2(C3)C(=O)NC(=O)N2C)C(=O)N1CC(F)(F)F [Example 2, (6R)-3′-Methyl-N-[(3S,5S,6R)-6-methyl-2-oxo-1-(2,2,2-trifluoroethyl)-5-(2,3,5,6-tetrafluorophenyl)piperidin-3-yl]-2′,5′-dioxo-5,7-dihydrospiro[cyclopenta[b]pyridine-6,4′-imidazolidine]-3-carboxamide]
9.55	C[C@@H]1[C@H](c2cc(F)cc(F)c2F)C[C@H](NC(=O)c2cnc3c(c2)C[C@@]2(C3)C(=O)NC(=O)N2C)C(=O)N1CC(F)(F)F [Example 3]
